Converted amounts (≈) assume the structure as drawn. The source made the active and inactive calls. How the calls were made is not given here.
Assays:
[1] = system: Streptococcus mutans; experiment: Bactericidal activity against Streptococcus mutans UA159 assessed as reduction in bacterial growth at 100 uM after 24 hrs; format: functional, organism-based
[2] = Solubility of compound in water; format: physicochemical
[3] = system: Streptococcus mutans; experiment: Antibiofilm activity against Streptococcus mutans UA159 assessed as inhibition of biofilm formation by serial dilution method; format: functional, organism-based
[4] = Streptococcus mutans, UA159, read-out: IC50

Compound | Activity [1] | solubility ([2]; water, read-out: solubility) [µg/mL] | IC50 [3, 4] [µM] | solubility ([2]; buffer) | IC50 [3]
NC(=O)c1ccccc1NC(=O)c1cc2ccccc2s1 | inactive | < 5 | 45.6 |  | 
COC(=O)c1ccccc1NC(=O)c1ccc2ccccc2n1 | inactive | < 5 | 89.5 |  | 
NC(=O)c1ccccc1NC(=O)c1ccc2ccccc2c1 | inactive | 25 (≈ 86.1 µM) | 84.1 |  | 
NCc1ccccc1NC(=O)c1cccc2ccccc12 | inactive | 25 (≈ 90.5 µM) | 224 |  | 
COC(=O)c1ccccc1NC(=O)c1cnc2ccccc2c1 | inactive | < 5 | 142 |  | 
COC(=O)c1cccc(NC(=O)c2ccc3ccccc3c2)c1 | inactive | 5 (≈ 16.4 µM) | > 300 |  | 
O=C(Nc1ccccc1)c1cc2cc([N+](=O)[O-])ccc2o1 | inactive | 25 (≈ 88.6 µM) | > 300 |  | 
COC(=O)c1ccc(NC(=O)c2ccc3ccccc3c2)cc1 | inactive | 25 (≈ 81.9 µM) | 112 |  | 
CC(C)(C)OC(=O)NCc1ccccc1NC(=O)c1cc2cc([N+](=O)[O-])ccc2o1 | inactive | 25 (≈ 60.8 µM) | 26.8 |  | 
NC(=O)c1ccccc1NC(=O)c1ccc2ccccc2n1 | inactive | 10 (≈ 34.3 µM) | 165 |  | 
COC(=O)c1cccc(NC(=O)c2ccc3ccccc3n2)c1 | inactive | 25 (≈ 81.6 µM) | 92.3 |  | 
O=C(Nc1ccccc1)c1cc2cc([N+](=O)[O-])ccc2[nH]1 | inactive |  |  | Insoluble | Nd(Insoluble)
CC(C)(C)OC(=O)NCc1ccccc1NC(=O)c1cc2ccccc2s1 | inactive | 20 (≈ 52.3 µM) | 43.4 |  | 
COc1ccc2[nH]c(C(=O)Nc3ccccc3CNC(=O)OC(C)(C)C)cc2c1 | inactive |  |  | Insoluble | Nd(Insoluble)
COC(=O)c1cccc(NC(=O)c2cc3cc([N+](=O)[O-])ccc3o2)c1 | inactive | 25 (≈ 73.5 µM) | 2.7 |  | 
CC(C)(C)OC(=O)NCc1ccccc1NC(=O)c1cc2cc([N+](=O)[O-])ccc2[nH]1 | inactive |  |  | Insoluble | Nd(Insoluble)
NC(=O)c1ccc(NC(=O)c2cc3ccccc3s2)cc1 | inactive | 25 (≈ 84.4 µM) | 45.6 |  | 
O=C(Nc1ccccc1)c1cc2cc([N+](=O)[O-])ccc2s1 | inactive | 10 (≈ 33.5 µM) | > 300 |  | 
NCc1ccccc1NC(=O)c1ccc2ccccc2n1 | inactive | 25 (≈ 90.1 µM) | 202 |  | 
COC(=O)c1ccccc1NC(=O)c1cc2cc(OC)ccc2[nH]1 | inactive |  |  | Insoluble | Nd(Insoluble)
NC(=O)c1cccc(NC(=O)c2cc3cc([N+](=O)[O-])ccc3[nH]2)c1 | inactive |  |  | Insoluble | Nd(Insoluble)
NC(=O)c1ccccc1NC(=O)c1ccc(-c2ccccc2)cc1 | inactive | 5 (≈ 15.8 µM) | 193 |  | 
COC(=O)c1cccc(NC(=O)c2cccc3ccccc23)c1 | inactive | < 5 | > 300 |  | 
NC(=O)c1cccc(NC(=O)c2ccc3ccccc3c2)c1 | inactive | < 5 | 240 |  | 
COc1ccc2[nH]c(C(=O)Nc3ccccc3)cc2c1 | inactive |  |  | Insoluble | Nd(Insoluble)
NC(=O)c1ccc(NC(=O)c2ccc(-c3ccccc3)cc2)cc1 | inactive | < 5 | > 300 |  | 
NC(=O)c1ccc(NC(=O)c2cc3cc([N+](=O)[O-])ccc3[nH]2)cc1 | inactive |  |  | Insoluble | Nd(Insoluble)
COc1ccc2[nH]c(C(=O)Nc3cccc(C(N)=O)c3)cc2c1 | inactive | 5 (≈ 16.2 µM) | 56.6 |  | 

— ChEMBL document CHEMBL4673385, “Discovery of Potent Inhibitors of Streptococcus mutans Biofilm with Antivirulence Activity” (ACS Med Chem Lett, 2021)
